Source: patent US9833497B2, “Human originated EGF domain proteins and use of the same” (CHENGDU SOURCEBIO LIMITED-LIABILITY COMPANY, priority 2013, dated 2017)

Assays:
Assay type in all cases: cell-based
[1] = test system: Klebsiella pneumonia; experiment: MIC against Gram-negative bacteria: Klebsiella pneumonia; details: for MIC (μg/mL) K. pneumonia / MIC against K. pneumonia / MIC K. pneumonia: 5×10^5 CFU/mL; for MIC K. pneumonia: two-fold serial dilution
Outline: (§1)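 Bacteria grown in LB at 37° C with shaking to McFarland 0.5, pelleted and resuspended in fresh LB, then seeded at 5×10^5 CFU/mL per well. Purified recombinant human EGF domain proteins were two-fold serially diluted in triplicate and plates shaken at 37° C, 175 rpm. MIC is the lowest protein concentration with no bacterial growth.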

[2] = test system: Proteus vulgaris; experiment: MIC against Gram-negative bacteria: Proteus vulgaris; details: for MIC (μg/mL) P. vulgaris / MIC against P. vulgaris / MIC P. vulgaris: 5×10^5 CFU/mL; for MIC P. vulgaris: two-fold serial dilution
Outline: as §1

[3] = test system: Aeromonas hydrophila; experiment: MIC against Gram-negative bacteria: Aeromonas hydrophila; details: for MIC (μg/mL) A. hydrophila / MIC against A. hydrophila / MIC A. hydrophila: 5×10^5 CFU/mL; for MIC A. hydrophila: two-fold serial dilution
Outline: as §1

[4] = test system: E. coli DH5α; experiment: Antibacterial activity: MIC and growth curve against E. coli DH5α in 96-well plate; details: minimal inhibitory concentration against E. coli DH5α; 96-well plate, 5×10^5 CFU/mL, 37° C., judged after 8 h
Outline: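 MIC taken as lowest protein level with no bacterial growth, tracked by A600 every 30 min during 37 °C, 175 rpm culture. Two-fold protein series 50-12.5 μg/mL final, triplicate wells, against 5×10^5 CFU/mL of LB-washed mid-log cells.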

[5] = test system: Moraxella catarrhalis; experiment: MIC against Gram-negative bacteria: Moraxella catarrhalis; details: for MIC (μg/mL) M. catarrhalis / MIC against M. catarrhalis / MIC M. catarrhalis: 5×10^5 CFU/mL; for MIC M. catarrhalis: two-fold serial dilution
Outline: as §1

[6] = test system: Serratia marcescens; experiment: MIC against Gram-negative bacteria: Serratia marcescens; details: for MIC (μg/mL) S. marcescens / MIC against S. marcescens / MIC S. marcescens: 5×10^5 CFU/mL; for MIC S. marcescens: two-fold serial dilution
Outline: as §1

[7] = test system: Enterobacter cloacae; experiment: MIC against Gram-negative bacteria: Enterobacter cloacae; details: for MIC (μg/mL) E. cloacae / MIC against E. cloacae / MIC E. cloacae: 5×10^5 CFU/mL; for MIC E. cloacae: two-fold serial dilution
Outline: as §1

[8] = test system: Proteus mirabilis; experiment: MIC against Gram-negative bacteria: Proteus mirabilis; details: for MIC (μg/mL) P. mirabilis / MIC against P. mirabilis / MIC P. mirabilis: 5×10^5 CFU/mL; for MIC P. mirabilis: two-fold serial dilution
Outline: as §1

[9] = test system: Pseudomonas aeruginosa; experiment: MIC against Gram-negative bacteria: Pseudomonas aeruginosa; details: for MIC (μg/mL) P. aeruginosa / MIC against P. aeruginosa / MIC P. aeruginosa: 5×10^5 CFU/mL; for MIC P. aeruginosa: two-fold serial dilution
Outline: as §1

[10] = test system: E. coli BL21; experiment: MIC against Gram-negative bacteria: E. coli BL21; details: for MIC (μg/mL) E. coli BL21 / MIC against E. coli BL21 / MIC E. coli BL21: 5×10^5 CFU/mL; for MIC E. coli BL21: two-fold serial dilution
Outline: as §1

[11] = test system: Citrobacter diversus; experiment: MIC against Gram-negative bacteria: Citrobacter diversus; details: for MIC (μg/mL) C. diversus / MIC against C. diversus / MIC C. diversus: 5×10^5 CFU/mL; for MIC C. diversus: two-fold serial dilution
Outline: as §1

[12] = Klebsiella pneumonia, 96-well plate, 37° C., 10 h
[13] = Proteus vulgaris, 96-well plate, 37° C., 10 h
[14] = Aeromonas hydrophila, 96-well plate, 37° C., 10 h
[15] = Moraxella catarrhalis, 96-well plate, 37° C., 10 h
[16] = Serratia marcescens, 96-well plate, 37° C., 10 h
[17] = Enterobacter cloacae, 96-well plate, 37° C., 10 h
[18] = Proteus mirabilis, 96-well plate, 37° C., 10 h
[19] = Pseudomonas aeruginosa, 96-well plate, 37° C., 10 h
[20] = E. coli BL21, 96-well plate, 37° C., 10 h
[21] = Citrobacter diversus, 96-well plate, 37° C., 10 h
[22] = Klebsiella pneumonia, 10 h cultivation at 37° C.
[23] = Proteus vulgaris, 10 h cultivation at 37° C.
[24] = Aeromonas hydrophila, 10 h cultivation at 37° C.
[25] = Moraxella catarrhalis, 10 h cultivation at 37° C.
[26] = Serratia marcescens, 10 h cultivation at 37° C.
[27] = Enterobacter cloacae, 10 h cultivation at 37° C.
[28] = Proteus mirabilis, 10 h cultivation at 37° C.
[29] = Pseudomonas aeruginosa, 10 h cultivation at 37° C.
[30] = E. coli BL21, 10 h cultivation at 37° C.
[31] = Citrobacter diversus, 10 h cultivation at 37° C.
[32] = K. pneumonia, 10 h cultivation at 37° C.
[33] = P. vulgaris, 10 h cultivation at 37° C.
[34] = A. hydrophila, 10 h cultivation at 37° C.
[35] = M. catarrhalis, 10 h cultivation at 37° C.
[36] = S. marcescens, 10 h cultivation at 37° C.
[37] = E. cloacae, 10 h cultivation at 37° C.
[38] = P. mirabilis, 10 h cultivation at 37° C.
[39] = P. aeruginosa, 10 h cultivation at 37° C.
[40] = C. diversus, 10 h cultivation at 37° C.

PRT107 (DRCLPSYCEHGGECSQSWDTFSCDCLGTGYTGETC; listed as Homo sapiens)
50 µg/mL: MIC (μg/mL) P. vulgaris [2, 13] | MIC (μg/mL) A. hydrophila [3, 14]
25 µg/mL: MIC (μg/mL) P. mirabilis [8, 18] | MIC (μg/mL) C. diversus [11, 21]
12.5 µg/mL: MIC (μg/mL) K. pneumonia [1, 12] | MIC [4] | MIC (μg/mL) M. catarrhalis [5, 15] | MIC (μg/mL) S. marcescens [6, 16] | MIC (μg/mL) E. cloacae [7, 17] | MIC (μg/mL) P. aeruginosa [9, 19] | MIC (μg/mL) E. coli BL21 [10, 20]

PRT1445 (PCLNDCGPYGQCLLLRRHSYLYASCSCKAGWRGWSCT; listed as Homo sapiens)
50 µg/mL: MIC against K. pneumonia [1, 22] | MIC against A. hydrophila [3, 24] | MIC [4] | MIC against S. marcescens [6, 26] | MIC against E. cloacae [7, 27] | MIC against P. mirabilis [8, 28] | MIC against P. aeruginosa [9, 29]
12.5 µg/mL: MIC against E. coli BL21 [10, 30]
25 µg/mL: MIC against P. vulgaris [2, 23] | MIC against M. catarrhalis [5, 25] | MIC against C. diversus [11, 31]

PRT1253 (WPRQCPCLVDGARYWPGQRIKADCQLCICQDGRPRRCR; listed as Homo sapiens)
25 µg/mL: MIC against K. pneumonia [1, 12] | MIC against S. marcescens [6, 16] | MIC against P. mirabilis [8, 18] | MIC against C. diversus [11, 21]
50 µg/mL: MIC against P. vulgaris [2, 13] | MIC against A. hydrophila [3, 14] | MIC [4] | MIC against P. aeruginosa [9, 19]
12.5 µg/mL: MIC against M. catarrhalis [5, 15] | MIC against E. cloacae [7, 17] | MIC against E. coli BL21 [10, 20]

PRT1097 (NIDECFSNPCIHGNCSDRVAAYHCTCEPGYTGVNCE; listed as Homo sapiens)
12.5 µg/mL: MIC K. pneumonia ([1]; 10 h cultivation at 37° C.) | MIC P. vulgaris ([2]; 10 h cultivation at 37° C.) | MIC A. hydrophila ([3]; 10 h cultivation at 37° C.) | MIC E. coli BL21 ([10]; 10 h cultivation at 37° C.)
100 µg/mL: MIC M. catarrhalis ([5]; 10 h cultivation at 37° C.)
25 µg/mL: MIC [4] | MIC S. marcescens ([6]; 10 h cultivation at 37° C.) | MIC E. cloacae ([7]; 10 h cultivation at 37° C.) | MIC P. mirabilis ([8]; 10 h cultivation at 37° C.) | MIC P. aeruginosa ([9]; 10 h cultivation at 37° C.) | MIC C. diversus ([11]; 10 h cultivation at 37° C.)

PRT779 (VSPCSRGYCDHGGQCQHLPSGPRCSCVSFSIYTAWGEHCE; listed as Homo sapiens)
12.5 µg/mL: MIC (μg/mL) K. pneumonia [1, 32] | MIC (μg/mL) P. vulgaris [2, 33] | MIC (μg/mL) A. hydrophila [3, 34] | MIC [4] | MIC (μg/mL) M. catarrhalis [5, 35] | MIC (μg/mL) E. coli BL21 [10, 30]
50 µg/mL: MIC (μg/mL) S. marcescens [6, 36] | MIC (μg/mL) E. cloacae [7, 37] | MIC (μg/mL) P. mirabilis [8, 38] | MIC (μg/mL) P. aeruginosa [9, 39] | MIC (μg/mL) C. diversus [11, 40]

PRT1130 (DDCSSHCDLAHGCCAPDGSCRCDPGWEGLHCE; listed as Homo sapiens)
12.5 µg/mL: MIC K. pneumonia ([1]; 10 h cultivation at 37° C.) | MIC P. vulgaris ([2]; 10 h cultivation at 37° C.) | MIC A. hydrophila ([3]; 10 h cultivation at 37° C.) | MIC [4] | MIC E. coli BL21 ([10]; 10 h cultivation at 37° C.)
50 µg/mL: MIC M. catarrhalis ([5]; 10 h cultivation at 37° C.) | MIC E. cloacae ([7]; 10 h cultivation at 37° C.) | MIC P. aeruginosa ([9]; 10 h cultivation at 37° C.)
25 µg/mL: MIC S. marcescens ([6]; 10 h cultivation at 37° C.) | MIC P. mirabilis ([8]; 10 h cultivation at 37° C.) | MIC C. diversus ([11]; 10 h cultivation at 37° C.)

PRT573 (CPCPDGPDSGRQFARSCYQDPVTLQLACVCDPGYIGSRCDDCASGYFGNPSEVGGSCQP; listed as Homo sapiens)
12.5 µg/mL: MIC against K. pneumonia ([1]; 96-well plate, 37° C., 10 h) | MIC against A. hydrophila ([3]; 96-well plate, 37° C., 10 h) | MIC against S. marcescens ([6]; 96-well plate, 37° C., 10 h) | MIC against P. mirabilis ([8]; 96-well plate, 37° C., 10 h) | MIC against E. coli BL21 ([10]; 96-well plate, 37° C., 10 h) | MIC against C. diversus ([11]; 96-well plate, 37° C., 10 h)
25 µg/mL: MIC [4] | MIC against E. cloacae ([7]; 96-well plate, 37° C., 10 h) | MIC against P. aeruginosa ([9]; 96-well plate, 37° C., 10 h)
50 µg/mL: MIC against P. vulgaris ([2]; 96-well plate, 37° C., 10 h) | MIC against M. catarrhalis ([5]; 96-well plate, 37° C., 10 h)

PRT577 (CACHPSRARGPTCNEFTGQCHCRAGFGGRTCSECQELHWGDPGLQCHA; listed as Homo sapiens)
25 µg/mL: MIC against K. pneumonia ([1]; 96-well plate, 37° C., 10 h) | MIC against A. hydrophila ([3]; 96-well plate, 37° C., 10 h) | MIC against E. coli BL21 ([10]; 96-well plate, 37° C., 10 h)
12.5 µg/mL: MIC against P. vulgaris ([2]; 96-well plate, 37° C., 10 h) | MIC [4] | MIC against M. catarrhalis ([5]; 96-well plate, 37° C., 10 h) | MIC against E. cloacae ([7]; 96-well plate, 37° C., 10 h)
50 µg/mL: MIC against S. marcescens ([6]; 96-well plate, 37° C., 10 h) | MIC against P. mirabilis ([8]; 96-well plate, 37° C., 10 h) | MIC against P. aeruginosa ([9]; 96-well plate, 37° C., 10 h) | MIC against C. diversus ([11]; 96-well plate, 37° C., 10 h)

PRT991 (RGLLCGSFPEPCANGGTCLSLSLGQGTCQCAPGFLGETCQ; listed as Homo sapiens)
25 µg/mL: MIC [1, 32] | MIC [6, 36] | MIC [8, 38] | MIC [10, 30]
50 µg/mL: MIC [4] | MIC [7, 37] | MIC [11, 40]
12.5 µg/mL: MIC [2, 33] | MIC [3, 34] | MIC [5, 35] | MIC [9, 39]

PRT1397 (PMNQCIDPSCGGHGSCIDGNCVCSAGYKGEHCE; listed as Homo sapiens)
25 µg/mL: MIC against S. marcescens [6, 26] | MIC against P. mirabilis [8, 28] | MIC against E. coli BL21 [10, 30] | MIC against C. diversus [11, 31]
50 µg/mL: MIC against K. pneumonia [1, 22] | MIC against P. vulgaris [2, 23] | MIC against A. hydrophila [3, 24] | MIC [4]
12.5 µg/mL: MIC against M. catarrhalis [5, 25] | MIC against E. cloacae [7, 27] | MIC against P. aeruginosa [9, 29]
